# Assays:
# [1] = Storage stability in fish oil (PV, p-AV, CD), Example 12; settings: FG30TG, 2 mg/g
# Description: Tables 25, 26 and 27 show the PV (peroxide value), p-AV (p-anisidine value) and CD (Conjugated dienoic acid %) of the fish oil samples stabilized with compounds of formulae (6), (8) and (9), respectively.
# For the storage stability study oil soluble compounds were used in fish oil at 2 mg/g level only. […] There was no considerable variation in p-AV and CD (Tables 26-27) during the storage.
# Solubility in fish oil = type: physicochemical
# Description: The compounds of formulae (4), (6), (8) and (9) were evaluated primarily for their oxidative stability by the Oil Stability Index (OSI) measurements. Two different levels of these antioxidants (0.5 and 2 mg/g) were used in 5 g of natural fish oil (Product code: FG30TG) and used in the Oxidative Stability Instrument at 80° C. with the air flow rate of 40 psi. The solubility of different amounts and types of antioxidants used in OSI was checked before and after the application. […]
# [2] = Polymers generated at end of OSI experiment in fish oil, by LC; settings: FG30TG oil, end of stabilization experiment
# Description: The compounds of formulae (6) and (9) (see Table 14 below), compound of formula (4) (see Table 15 below) and compound of formula (8) (see Table 16 below) were used at different times in the Oxidative Stability instruments under similar operational conditions used for fish oil evaluations. MNT and the oil without any antioxidants (“Blank”) were always used to compare. Also, the synergistic effect of only oil soluble compounds with ascorbyl palmitate was determined using the OSI values. The polymers generated at the end of the experiment were determined by LC (LC=liquid chromatography). Polymers generated at the end of the stabilization experiment of fish oil with compounds of formulae 6 and 9 and AP are shown in Table 24. A combination of complex, polymeric compounds generated at the end of the oxidation cascade of unsaturated fatty acids indicate the levels of overall oxidation of the matrix. The generation of such polymers in fish oil containing these novel antioxidant compounds could be reduced considerably when AP was added as a synergistic compound (Table 24).
# [3] = Oil Stability Index (OSI) in fish oil, Example 12; settings: for OSI / Protection Factor (%): FG30TG fish oil; for antioxidant effect (OSI) in fish oil compared with MNT: Example 12, same level of MNT
# Description: The compounds of formulae (4), (6), (8) and (9) were evaluated primarily for their oxidative stability by the Oil Stability Index (OSI) measurements. Two different levels of these antioxidants (0.5 and 2 mg/g) were used in 5 g of natural fish oil (Product code: FG30TG) and used in the Oxidative Stability Instrument at 80° C. with the air flow rate of 40 psi. The solubility of different amounts and types of antioxidants used in OSI was checked before and after the application.
# The compounds of formulae (6) and (9) (see Table 14 below), compound of formula (4) (see Table 15 below) and compound of formula (8) (see Table 16 below) were used at different times in the Oxidative Stability instruments under similar operational conditions used for fish oil evaluations. MNT and the oil without any antioxidants (“Blank”) were always used to compare. Also, the synergistic effect of only oil soluble compounds with ascorbyl palmitate was determined using the OSI values. The polymers generated at the end of the experiment were determined by LC (LC=liquid chromatography).
# The Protection Factors (PF) for each compound in oil were calculated in percentage as: […]
# [4] = Oxipres antioxidant efficacy value (EV) in fish meal; settings: Oxipres 70° C., 5 bar O2, equimolar to BHT; EV relative to BHT (EV=1)
# Description: Oxidative stability was assessed using an Oxipres (Mikrolab Aarhus A/S, Hojbjerg, Denmark). The ML OXIPRES® is designed to monitor the oxidation of heterogeneous products. Consumption of oxygen results in a pressure drop which is measured by means of pressure transducers. The samples are heated to accelerate the process and shorten the analysis time (Mikrolab Aarhus 2012).
# Sample weights were 50 g. They were loaded into the Oxipres vessels and placed inside the stainless-steel pressure vessel and sealed. The pressure vessels were purged with pure oxygen and filled to an initial oxygen pressure of 5 bar and maintained at 70° C. during measurement (D. Ying, L. Edin, L. Cheng, L. Sanguansri, M. A. Augustin, LWT—Food Science and Technology 2015, 62, 1105-1111: “Enhanced oxidative stability of extruded product containing polyunsaturated oils.”).
# The oxygen pressure was recorded as function of time. After sample load and temperature rise the pressure in the device is increasing within 10 hours up to the starting pressure. Thereafter it is decreasing. Consequently, the starting pressure is considered as being the pressure after 10 hours. The analysis ends after 130 hours at 70° C. The oxygen consumption ‘O2’ of the tested sample is calculated as follows: […]
# A factor of protection called ‘EV’ (Efficacy Value) was developed to quantify with a relative number (relative to BHT) the antioxidant effect of the tested candidates. EV was calculated as follows:
# EV, being relative to BHT (3,5-di-tert-butyl-4-hydroxy-toluene) (EV=1), makes it possible to compare the antioxidant compounds in a defined feed application.
# Each of the compounds of formulae (1) to (6) were mixed into each matrix 1, 2 or 3 (pet food, poultry meal, fish meal) in an equimolar ratio compared to BHT. Batches of 200 g feed were produced in order to handle a minimum of 30 mg of antioxidant. First, a 1% pre-dilution of the antioxidant with the feed material was made. Then this pre-dilution was added to the final batch, mixed, sieved (1.25 mm sieve) and mixed using a turbula mixer. Thereafter 55 g of the final batch were packed into polyethylene bags, and stored at 4° C. until start of the Oxipres assay. Spare sample were stored at 4° C. Compound of formula (3) was measured in all three matrices. Compound of formula (1) was measured in matrix 1 and 2. Compound of formula (2) was measured in matrix 2. Compounds of formulae (4), (5) and (6) were measured in matrix 3. An efficacy value 0.7 has been considered as acceptable, an efficacy value ≥ the efficacy value of alpha-tocopherol as good, and an efficacy value ≥ the efficacy value of BHT as very good.
# [5] = Oil Stability Index in crude algal oil, Example 12; settings: for prooxidant effect in algal oil: higher levels (2 mg/g)
# Excerpt: To evaluate the efficacy of the compounds of formulae (4), (6), (8) and (9) in algal oils, only oil soluble compounds were used. […] Protection Factors of all these compounds, including MNT, in fish oil could be improved by the addition of AP (Tables 22-23) indicating the possibility of combining AP to all these novel compounds to improve the oxidative stability of matrices containing high amounts of unsaturated fatty acids such as fish oil.
# [6] = Table 20, 2 mg/g + 0.5 mg/g of AP (ascorbyl palmitate)
# [7] = Table 22, 2 mg/g + 0.5 mg/g of AP
SMILES,CD (conjugated dienoic acid in %) ([1]; 4 days),PV (peroxide value) ([1]; 4 days),p-AV (p-anisidine value) ([1]; 4 days),CD (conjugated dienoic acid in %) ([1]; 6 days),PV (peroxide value) ([1]; 6 days),p-AV (p-anisidine value) ([1]; 6 days),CD (conjugated dienoic acid in %) ([1]; 8 days),PV (peroxide value) ([1]; 8 days),p-AV (p-anisidine value) ([1]; 8 days),CD (conjugated dienoic acid in %) ([1]; 11 days),PV (peroxide value) ([1]; 11 days),p-AV (p-anisidine value) ([1]; 11 days),CD (conjugated dienoic acid in %) ([1]; 13 days),PV (peroxide value) ([1]; 13 days),p-AV (p-anisidine value) ([1]; 13 days),CD (conjugated dienoic acid in %) ([1]; 15 days),PV (peroxide value) ([1]; 17 days),p-AV (p-anisidine value) ([1]; 17 days),CD (conjugated dienoic acid in %) ([1]; Initial),PV (peroxide value) ([1]; Initial),also measured
"Cc1c(C)c2c(c(C)c1O)CCC(C)(CO)O2 (centres unmarked) [Compound of formula (6), 2-Hydroxymethyl-2,5,7,8-Tetramethyl-6-Chromanol]",0.7%,4.1,10.4,0.7%,7,9.7,0.7%,7.9,10.2,0.8%,10.2,10.4,0.8%,14.9,10.3,0.8%,18.6,10.7,0.7%,0.9,"p-AV (p-anisidine value) ([1]; Initial): 9.9; Solubility in fish oil, 80° C. (Solubility in fish oil; 0.5 mg/g): Soluble; Solubility in fish oil, Room temp. (Solubility in fish oil; 0.5 mg/g): Soluble; Solubility in fish oil, 80° C. (Solubility in fish oil; 2.0 mg/g): Soluble; Solubility in fish oil, Room temp. (Solubility in fish oil; 2.0 mg/g): Soluble; Polymers (%) ([2]; 2 mg/g + 0.5 mg/g of AP): 25.09%; Polymers (%) ([2]; 2 mg/g, without AP): 37.37%; OSI ([3]; Table 14, 80° C., 0.5 mg/g): 7.05 h; OSI ([3]; Table 14, 80° C., 2 mg/g): 7.30 h; Protection Factor (%) ([3]; Table 17, 0.5 mg/g): 54.95%; Protection Factor (%) ([3]; Table 17, 2 mg/g): 60.44%; OSI [3, 6]: 11.20 h; OSI ([3]; Table 20, 2 mg/g, without AP): 6.15 h; Protection Factor (%) [3, 7]: 141.9%; Protection Factor (%) ([3]; Table 22, 2 mg/g, without AP): 32.8%; antioxidant effect (OSI) in fish oil compared with MNT [3]: comparable to the effect of MNT; EV in Fish meal [4]: 1.03; OSI values in algal oil compared with MNT [5]: clearly lower OSI values than those of MNT; prooxidant effect in algal oil [5]: possible prooxidant effect"
Cc1c(C)c2c(c(C)c1O)CCC(C)(CCCC(C)C)O2 (centres unmarked) [Compound of formula (9)],0.7%,2.9,10.5,0.7%,7.3,9.9,0.8%,8.8,10.3,0.9%,11.2,10.5,0.8%,15,10.5,0.8%,19.2,11,0.7%,0.9,"p-AV (p-anisidine value) ([1]; Initial): 9.9; Solubility in fish oil, 80° C. (Solubility in fish oil; 0.5 mg/g): Soluble; Solubility in fish oil, Room temp. (Solubility in fish oil; 0.5 mg/g): Soluble; Solubility in fish oil, 80° C. (Solubility in fish oil; 2.0 mg/g): Soluble; Solubility in fish oil, Room temp. (Solubility in fish oil; 2.0 mg/g): Soluble; Polymers (%) ([2]; 2 mg/g + 0.5 mg/g of AP): 31.06%; Polymers (%) ([2]; 2 mg/g, without AP): 40.34%; OSI ([3]; Table 14, 80° C., 0.5 mg/g): 5.75 h; OSI ([3]; Table 14, 80° C., 2 mg/g): 6.05 h; Protection Factor (%) ([3]; Table 17, 0.5 mg/g): 26.37%; Protection Factor (%) ([3]; Table 17, 2 mg/g): 32.97%; OSI [3, 6]: 8.93 h; OSI ([3]; Table 20, 2 mg/g, without AP): 6.30 h; Protection Factor (%) [3, 7]: 92.8%; Protection Factor (%) ([3]; Table 22, 2 mg/g, without AP): 36.1%; antioxidant effect (OSI) in fish oil compared with MNT [3]: comparable to the antioxidative effect of MNT; OSI values in algal oil compared with MNT [5]: clearly lower OSI values than those of MNT; prooxidant effect in algal oil [5]: possible prooxidant effect"

# Reference: patent US20210030022A1, “NOVEL USE OF SUBSTITUTED CHROMAN-6-OLS” (DSM IP ASSETS B.V., priority 2018, published 2021)
